For experiment [1], the system named is AKT kinase activity in high HER-2 (SKBr3) cells. Briefly: AKT kinase activity after immunoprecipitation (GSK-1 substrate, 32-P ATP) in SKBr3 cells. The class given is cell-based, human. The following applies: 100 nM. On the procedure:
(§1) Lysates were resolved by SDS-PAGE, transferred onto Immobilon PVDF membranes, blocked in 5% nonfat milk and probed with antibodies to AKT or […] phosphorylated AKT (phospho-AKT) from Upstate. Following incubation with HRP-conjugated secondary antibodies, proteins were detected using chemiluminescnce (Amersham). AKT kinase activity was assessed following immunopreciptation by a standard kinase assay with the recombinant AKT substrate protein […] and 32-P labelled ATP. AKT is a key kinase in tumor cells.

The subject of experiment [2] is AKT and phospho-AKT in BT-474, SKBR-3, U87, MCF-7, MDA-468 cells. Description: Western blot of AKT and phospho-AKT in a panel of cell lines. The class given is cell-based, human. On the procedure: Cells were treated with 1 uM CNF-101 (17-AAG) for 24 hrs, washed, harvested and lysed in NP-40. Lysates were resolved by SDS-PAGE, transferred onto Immobilon PVDF membranes, blocked in 5% nonfat milk and probed with antibodies to AKT or […] phosphorylated AKT (phospho-AKT) from Upstate. Following incubation with HRP-conjugated secondary antibodies, proteins were detected using chemiluminescnce (Amersham). AKT is a key kinase in tumor cells.
A general note: In western blotting, separated proteins are transferred to a membrane and probed.

The test system of experiment [3] is human cancer cell lines BT-474, SKBR-3, SKOV-3, MCF-Her2, MCF-7, MDA-468, MDA-231, T47-D, MDA435. Description: Antiproliferative effect on cancer cell lines expressing different amounts of HER-2 (ethidium bromide nuclei staining, flow cytometry). The class given is cell-based. On the procedure:
Human cancer cell lines BT-474, SKBR-3, SKOV-3, MCF-Her2, MCF-7, MDA-468, MDA-231, T47-D, and MDA435 were obtained from the American Type Culture Collection (“ATCC;” Manassas, Va., USA). Cell lines were maintained in […] medium, supplemented with 5% fetal calf serum (BRL), 2 mM glutamine, and 50 U/ml each of penicillin and streptomycin, at 37° C. in 5% CO2.
Cells were treated for 24 hours with CNF-101 (17-AAG) at concentrations of 1 to 1000 nM. Following treatment, the nuclei were stained with ethidium bromide and analyzed by flow cytometry. Nuclei were isolated for flow cytometry assays, stained with ethidium bromide and analyzed using a Becton Dickinson fluorescence-activated cell sorter. Statistical data was obtained using Multicycle program software.
Those cell lines expressing the highest levels of HER-2 were the most sensitive to CNF-101 (17-AAG) (FIG. 1).
In general terms: A flow cytometer gives signals particle by particle.

Experiment [4] deals with AKT and phospho-AKT in HER-2+++ and HER-2- cells. Description: Western blot of AKT and phospho-AKT in HER-2+++ and HER-2- cells. The class given is cell-based, human. Particulars: 1 uM, 24 hrs. Here is the method:
as §1, with “Cells were treated with 1 uM CNF-101 (17-AAG) for 24 hrs, washed, harvested and lysed in NP-40. Lysates” for “Lysates”

Experiment [5] deals with AKT kinase activity in HER-2-low MCF-7 line. Briefly: AKT kinase activity after immunoprecipitation (GSK-1 substrate, 32-P ATP) in MCF-7 cells. The following applies: ten times 100 nM. The class given is cell-based, human. Here is the method: as §1, with “Cells were treated with 1 uM CNF-101 (17-AAG) for 24 hrs, washed, harvested and lysed in NP-40. Lysates” for “Lysates”

Experiment [6] deals with cyclin D1, cyclin D3, cdk4, AKT, Raf-1 in BT-474 cells. Description: Immunoblot of protein expression in BT-474 (HER-2+++) cells. The class given is cell-based, human. The following applies: 50 nM or 500 nM. On the procedure: (§2) Levels of mitotic cyclin expression, HER-2 expression, AKT expression and Raf1 expression in MCF-7 (HER-2 negative) or BT-474 (HER-2+++) cell lines treated with CNF-101 (17-AAG) were assessed using immunoblot analysis. Immunoblot analysis of lysates from cells treated with either 50 nM or 500 nM CNF-101 (17-AAG) were analyzed by Western blot using anti-cyclin D1, anti-cyclin D3, anti-cyclin cdk4, anti-AKT or anti-Raf1 antibodies. All antibodies were obtained from Santa Cruz Biotechnology (Santa Cruz, Calif., USA). Treated cells were harvested, washed with PBS and lysed in NP40 lysis buffer (50 mM Tris pH7.4, 1% NP40,150 mM NaCl, 40 mM NaF. 1 mM Na3VO4, 1 mM phenylmethylsulfonylfluoride, and 10 μg/ml each of leupeptin, aprotinin and soybean trypsin inhibitor) for 30 min on ice. Lysates were centrifuged at 15,000×g for 10 min and protein concentration determined by bicinchoninic acid protein assay (Pierce). Equal amounts of total protein were resolved by SDS-PAGE and transferred onto Immobilon PVDF membranes (Millipore) by electroblotting. Blots were blocked overnight in 5% nonfat milk in TBS-T (0.1% Tween-20 TBS, 10 mM Tris pH 7.4, 150 mM NaCl) at 4° C. and subsequently probed with either anti-HER-2, anti-cylin D1, anti-cyclin D3, anti cdk4, anti-AKT or anti-Raf1 antibodies. Following incubation with HRP-conjugated secondary antibodies, proteins were detected by chemiluminescence (Amersham).

Experiment [7] deals with HER-2, AKT and phospho-AKT in BT-474 xenografts. Description: Western blot of HER-2, AKT and phospho-AKT in BT-474 breast carcinoma xenografts. The class given is in vivo, Swiss nu/nu mice. The following applies: 50 mg/kg, intraperitoneally. Here is the method:
BT-474 breast tumor cells were implanted subcutaneously on the flank of Swiss nu/nu mice and allowed to become established to a diameter of 5 mm. Animals were treated intraperitoneally with optimal doses of CNF-101 (17-AAG) and tumors removed at the indicated times thereafter. Tumor tissue was snap-frozen at the time of removal. For analysis, tissues were rapidly thawed, lysed and assaysed for HER-2, AKT and phospho-AKT by Western blotting.

In experiment [8] the test system is cyclin D1, cyclin D3, cdk4, AKT, Raf-1 in MCF-7 cells. Description: Immunoblot of protein expression in MCF-7 (HER-2 negative) cells. The class given is cell-based, human. The following applies: 50 nM or 500 nM. Here is the method:
as §2

Where [9] appears, read: 1 uM, 24 hrs, panel of cell lines.
Where [10] appears, read: HER-2 overexpressing cells (BT-474).
Where [11] appears, read: HER low expressing cells (MCF-7).

This is an account of results in US7825094B2, “Method of treatment for cancers associated with elevated HER 2 levels” (Sloan-Kettering Institute for Cancer Research, priority 2001, dated 2010).

On to `C=CCNC1=C2C[C@@H](C)C[C@H](OC)[C@H](O)[C@@H](C)/C=C(\C)[C@H](OC(N)=O)[C@@H](OC)/C=C\C=C(/C)C(=O)NC(=CC1=O)C2=O` [CNF-101 (17-AAG), 17-allylamino-17-demethoxygeldanamycin], for which the “time to complete loss of AKT activity” value in experiment [1] is no more than 3 h. Besides, in experiment [2] (setting [9]), the AKT protein level entry is recorded as “does not cause significant loss of the protein” and the phospho-AKT level entry is on record as “disappears from the treated cells”. For the same molecule, the AKT activity result in experiment [2] (1 uM, multiple cell lines) is recorded as “causes loss of AKT activity in multiple cell lines”. Further, in experiment [2] (high HER-2: BT-474, SKBR-3, low HER-2: U87, MCF-7, MDA-468), the “loss of AKT activity in high HER-2 lines versus low HER-2 lines” value was “much more rapid and complete loss of AKT activity”. The growth arrest result in experiment [3] (24 hours, 1 to 1000 nM, all cell lines tested (FIG. 1)) is listed as “caused growth arrest in all the cell lines tested”. Also, the “difference in sensitivity between congenic pair” value in experiment [3] (MCF-7 vs. MCF-7/HER-2) stood at 10 fold. Also, the “sensitivity of high HER-2 lines versus low HER-2 lines” value in experiment [3] (high HER-2: BT-474, SKBR-3, SKOV-3, MDA435, low HER-2: MDA-468, MDA-231, T47D) is given as “markedly more sensitive”. In addition, in experiment [4], the AKT protein level result is reported as “does not cause significant loss of the protein” and the phospho-AKT level entry is on record as “disappears from the treated cells”. Also, the “time to cause even partial loss of AKT kinase activity” value in experiment [5] is 12 h. Besides, in experiment [6] (BT-474), the “cyclin D1 protein level” value was “rapid decrease” and the “cyclin D3 protein level” value was “rapid decrease”. The “Raf-1 (HSP90 client protein) level” value in experiment [6] (BT-474, 0, 4, 12, 24 hours) was “degradation”. Moreover, in experiment [6] (setting [10]), the AKT protein level result is “not affected” and the cdk4 protein level entry was “not affected”. Moreover, in experiment [7], the “AKT protein levels in xenograft” value is recorded as “remained constant”, the “HER-2 protein levels in xenograft” value was “declined” and the “phosphorylated ("active") AKT protein in xenograft” value is listed as “declined rapidly”. Besides, in experiment [8] (setting [11]), the AKT protein level entry is listed as “not affected” and the cdk4 protein level result is listed as “not affected”. Moreover, in experiment [8] (MCF-7 (low HER-2)), the “decrease in cyclin D1 protein level” value is listed as “not seen” and the “decrease in cyclin D3 protein level” value is listed as “not seen”. The “Raf-1 (HSP90 client protein) level” value in experiment [8] (MCF-7, 0, 4, 12, 24 hours) was “degradation”.
